{"source": "paper doi:10.1101/2020.04.28.066902v2", "about": "(bioRxiv, 2020)", "experiment": "Equilibrium peptide uptake in human OA cartilage explants", "type": "in vitro ADME", "note": "Entries after “also recorded” stand apart in the source; their conditions may differ."}
{"sequence": "RKKRRQRRR [TAT-PTD]", "values": [{"measurement": "partitioning coefficient with 500 mM NaCl vs untreated cartilage", "setting": "500 mM NaCl added to the PBS, p=0.3, n=24", "result": "not"}, {"measurement": "partitioning coefficient after trypsin treatment vs untreated cartilage", "setting": "cartilage degraded in 5 mM trypsin for 24 hours prior to uptake, p=0.045, n=24", "result": "reduced; also recorded: decreased partitioning coefficients; also recorded: decreased uptake"}]}
